Values after ≈ are worked out from the molar mass of the structure shown. Where two headings read alike, the source gives them in different places.
Legend:
M. leprae [1] = test: Propagation of M. leprae in mouse paws; type: in vivo; conditions: two months in feed; DDS 0.0001%, Rifampicin 0.001%, K-130 0.01%, Brodimoprim 0.01%, PH 22-26 0.05%
Procedure: The therapeutic action was determined as a reduction of the number of acid-resistant bacteria in the mouse paw according to C. C. Shepard, J. Experim. Met., 112, p. 445, 1960.
It is possible to detect the synergistic effect of the combinations, even under in vivo conditions.

M. leprae [2] = test: In vitro propagation of M. leprae, thymidine incorporation; type: cell-based; conditions: Mycobacterium leprae, read-out: % Reduction Thymidine incorporation; for inhibition of growth at 10000 µg/mL: 10 mg/ml
Procedure: The inhibiting action was determined as a reaction of the thymidine absorption and the ATP content in M. Leprae suspensions, in the manner described by A. M. Dhople, Med. Sci. Res., 15, p.

[3] = test system: Mycobacterium avium Patient Strain (Birk); test: Minimum inhibiting concentration, M. avium Patient Strain (Birk); type: cell-based; conditions: Mycobacterium avium, M. avium Patient str., read-out: Minimum inhibiting concentration
[4] = test system: Mycobacterium tuberculosis H 37 RV; test: Minimum inhibiting concentration, M. tuberculosis H37RV; type: cell-based; conditions: Mycobacterium tuberculosis; M. tub. H37RV
Procedure: The minimum inhibiting concentration of the commercially available and inventive substances given in Table 2 was determined according to the known standard process ("Methods for sensitivity testing of bacterial infectious germs", DIN 58940, part 5).
The determination was carried out on the following bacterial cultures:
2. Mycobacterium tuberculosis H 37 RV, FIB 2-85 JS
For culturing the bacterial cultures use was made of nutrient substrates according to Gottsacker and Lowenstein Jensen and culture media according to Lockemann or Dubos-Davis (cf. "Detection processes for mycobacteria from test material, III, culture medium formulations for culturing tuberculosis bacteria", 1978, Publisher: Deutsches Zentralkomitee zur Bekampfung der Tuberculose, Poppenhusenstrasse 14c, 2000 Hamburg 60).
In each case 5×10^-3 to 5×10^-5 mg, based on the wet weight, of the mycobacterial strains were incubated in 2 ml of culture fluid (Lockemann +0.5 wt/vol. % bovine serum albumen fraction 5) at 31° C. with a graded concentration of the particular inhibitor (dilution series). The culture tubes were read off after 8 to 15 days, as a function of the bacterial strain.
The MIC is the inhibitor concentration in μMol/l at which no propagation of the sewn cells is observed.

Mycobacterium lufu = test: Minimum inhibiting concentration, M. lufu L 209; type: cell-based; conditions: Mycobacterium lufu
[5] = test system: Mycobacterium marinum SN 1254; test: Minimum inhibiting concentration, M. marinum SN1254; type: cell-based
[6] = test system: Mycobacterium smegmatis ATCC 607; test: Minimum inhibiting concentration, M. smegmatis ATCC 607; type: cell-based; conditions: Mycolicibacterium smegmatis
[7] = test system: Sierra Leone D-6 (parasitic malaria strain); test: Growth of malaria strain Sierra Leone D-6; type: cell-based; conditions: for IC50: read-out: I50; for IC90: read-out: I90
Text: (§1) Determination of the semimaximum inhibiting concentration (I50) of typical representatives of the inventive compounds for the growth of parasitic malaria strains:
(§2) The determination took place according to the standard process (cf. WHO determination process).
(§3) The process according to Example 35 was repeated with the difference that the semimaximum inhibiting concentration of combinations of the inventive compound PH 22 with (2), (3) inhibitors of dihydrofolic acid reductase, (4) inhibitors of folate synthase and dihydrofolic acid reductase and (5), (6) inhibitors of DNA-synthesis were determined.

[8] = test system: Indochina W-2 (parasitic malaria strain); test: Growth of malaria strain Indochina W-2; type: cell-based; conditions: for IC50: read-out: I50; for IC90: read-out: I90
Text: as §1, §2, §3

[9] = M. marin. SN1254, read-out: Minimum inhibiting concentration
[10] = ATCC607, M. smegm. ATCC 607, read-out: Minimum inhibiting concentration

| Compound | MIC [4] | MIC (Mycobacterium lufu) | MIC [5, 9] | MIC [6, 10] | further results |
| --- | --- | --- | --- | --- | --- |
| COc1cc(Cc2cnc(N)nc2N)cc(OC)c1OCCCNc1ccc(S(=O)(=O)c2ccc(N)cc2)cc1 [K-130, 2,4-diamino-5-{4-[3-(4'-aminophenyl-4-sulphonylphenylamino)-propoxy]-3,5-dimethoxybenzyl}-pyrimidine] |  |  |  |  | % Inhibition of propagation of M. leprae in mouse paws (M. leprae [1]): 56%; inhibition of growth at 10000 µg/mL (M. leprae [2]): 0%; inhibition of growth at 20000 µg/mL (M. leprae [2]; 20 mg/ml): 65% |
| c1ccc(C(=NNc2nncc3ccccc23)c2ccccn2)cc1 [PH 22-22, 2-benzoylpyridine-1'-phthalazinylhydrazone] | 18.5 µM (≈ 6.02 µg/mL) | 2.3 µM (≈ 0.748 µg/mL) | 10.8 µM (≈ 3.51 µg/mL) | 12.3 µM (≈ 4 µg/mL) | MIC [3]: 86 µM |
| Nc1ccnc(C=NNc2nncc3ccccc23)c1 [PH 22-23, 4-aminopyridine-2-aldehyde-1'-phthalazinylhydrazine] | 13.3 µM (≈ 3.52 µg/mL) | 26.5 µM (≈ 7 µg/mL) | 38 µM (≈ 10 µg/mL) | 13.3 µM (≈ 3.52 µg/mL) |  |
| CC(=O)Nc1ccnc(C=NNc2ccc3ccccc3n2)c1 [PH 22-19, 4-acetylaminopyridine-2-aldehyde-2'-quinolylhydrazone] | 11.5 µM (≈ 3.51 µg/mL) | 32.9 µM (≈ 10 µg/mL) | 11.5 µM (≈ 3.51 µg/mL) | 9.8 µM (≈ 2.99 µg/mL) |  |
| CC(=NNc1nncc2ccccc12)c1cc(N)ccn1 [PH 22-24, 2-acetyl-4-aminopyridine-1'-phthalazinylhydrazine] | 4.5 µM (≈ 1.25 µg/mL) | 2.2 µM (≈ 0.612 µg/mL) | 18 µM (≈ 5.01 µg/mL) | 4.5 µM (≈ 1.25 µg/mL) |  |
| COc1cc(Cc2cnc(N)nc2N)cc(OC)c1Br [Brodimoprim, brodimoprim, reference compound] | 94 µM (≈ 31.9 µg/mL) | 80 µM (≈ 27.1 µg/mL) | 18 µM (≈ 6.11 µg/mL) |  | MIC ([3]; values marked *): > 100 µg/mL; % Inhibition of propagation of M. leprae in mouse paws (M. leprae [1]): 3% |
| C(=NNc1ccccn1)c1nccc2ccccc12 [PH 22-37, isoquinoline-1-aldehyde-2'-pyridyl hydrazone] | 3 µM (≈ 0.745 µg/mL) | 12.1 µM (≈ 3 µg/mL) | 6 µM (≈ 1.49 µg/mL) | 6 µM (≈ 1.49 µg/mL) |  |
| Cc1ccnc(C=NNc2nncc3ccccc23)c1 [PH 22-8, 4-methyl-pyridine-2-aldehyde-1'-phthalazinylhydrazone] | 18 µM (≈ 4.74 µg/mL) | 31 µM (≈ 8.16 µg/mL) | 22 µM (≈ 5.79 µg/mL) | 44 µM (≈ 11.6 µg/mL) |  |
| Cc1ccc(C=NNc2ccc3ccccc3n2)nc1 [PH 22-14, 5-methyl-pyridine-2-aldehyde-2'-quinolylhydrazone] | 1.2 µM (≈ 0.315 µg/mL) | 3.8 µM (≈ 0.997 µg/mL) | 5.7 µM (≈ 1.5 µg/mL) | 9.5 µM (≈ 2.49 µg/mL) |  |
| CC(=NNc1nncc2ccccc12)c1ccccn1 [PH 22-3, 2-acetylpyridine-1'-phthalazinylhydrazone] | 31 µM (≈ 8.16 µg/mL) | 6.6 µM (≈ 1.74 µg/mL) | 22 µM (≈ 5.79 µg/mL) | 44 µM (≈ 11.6 µg/mL) | MIC [3]: 53 µM |
| CC(=NNc1cc(Cl)ncn1)c1ccccn1 [PH 22-32] | 6.1 µM (≈ 1.51 µg/mL) | 1.3 µM (≈ 0.322 µg/mL) | 28.3 µM (≈ 7.01 µg/mL) |  |  |
| C(=NNc1nncc2ccccc12)c1ccc(OCc2ccccc2)cn1 [PH 22-6, 5-benzyloxypyridine-2-aldehyde-1'-phthalazinylhydrazone] | 8.5 µM (≈ 3.02 µg/mL) | 5.6 µM (≈ 1.99 µg/mL) | 7 µM (≈ 2.49 µg/mL) | 40 µM (≈ 14.2 µg/mL) | MIC [3]: 7 µM |
| CC(=O)Nc1ccnc(C=NNc2nncc3ccccc23)c1 [PH 22-18, 4-acetylaminopyridine-2-aldehyde-1'-phthalazinylhydrazone] | 46 µM (≈ 14.1 µg/mL) | 22.9 µM (≈ 7.01 µg/mL) | 92 µM (≈ 28.2 µg/mL) | 65 µM (≈ 19.9 µg/mL) |  |
| CC(=O)Nc1ccnc(C=NNc2ccccn2)c1 [PH 22-17, 4-acetylamino-pyridine-2-aldehyde-2'-pyridylhydrazone] | > 125 µM | 94 µM (≈ 24 µg/mL) |  |  | IC50 [7]: 0.6 µM; IC90 [7]: 1.1 µM; MIC ([5]; SN1254, read-out: Minimum inhibiting concentration): > 125 µM; MIC ([6]; ATCC607, read-out: Minimum inhibiting concentration): > 125 µM; IC50 [8]: 0.5 µM; IC90 [8]: 2.3 µM |
| CCc1ccc(C=NNc2nncc3ccccc23)nc1 [PH 22-5, 5-ethylpyridine-2-aldehyde-1'-phthalazinylhydrazone] | 16.6 µM (≈ 4.6 µg/mL) | 14.5 µM (≈ 4.02 µg/mL) | 10.4 µM (≈ 2.88 µg/mL) | 67 µM (≈ 18.6 µg/mL) |  |
| Clc1ccc(NN=Cc2ccccn2)nc1 [PH 22-30, pyridine-2-aldehyde-5'-chloro-2'-pyridylhydrazone] | 1.3 µM (≈ 0.302 µg/mL) | 2.7 µM (≈ 0.628 µg/mL) | 5.4 µM (≈ 1.26 µg/mL) |  | MIC [3]: 13 µM |
| CN(N=Cc1ccccn1)c1cc(Cl)ncn1 [PH 22-36, pyridine-2-aldehyde-6'-chloro-4'-pyrimidyl-(N1-methyl)-hydrazone] | 136 µM (≈ 33.7 µg/mL) | 5.3 µM (≈ 1.31 µg/mL) | 119 µM (≈ 29.5 µg/mL) |  |  |
| Cc1ccc(C=NNc2nncc3ccccc23)nc1 [PH 22-16, 5-methyl-pyridine-2-aldehyde-1'-phthalazinylhydrazone] | 1.4 µM (≈ 0.369 µg/mL) | 4.8 µM (≈ 1.26 µg/mL) | 76 µM (≈ 20 µg/mL) | 5.7 µM (≈ 1.5 µg/mL) |  |
| Nc1ccc(S(=O)(=O)c2ccc(N)cc2)cc1 [DDS, 4,4'-diaminodiphenylsulphone] |  |  |  |  | % Inhibition of propagation of M. leprae in mouse paws (M. leprae [1]): 14%; inhibition of growth at 5000 µg/mL (M. leprae [2]; 5 mg/ml): 0%; inhibition of growth at 10000 µg/mL (M. leprae [2]): 5% |
| CCc1ccc(C=NNc2cc(OC)ncn2)nc1 [PH 22-33, 5-ethylpyridine-2-aldehyde-6'-methoxy-4'-pyrimidylhydrazone] | 2.4 µM (≈ 0.618 µg/mL) | 1.5 µM (≈ 0.386 µg/mL) | 4.9 µM (≈ 1.26 µg/mL) |  |  |
| CC(O)CN(C)c1ccc(NN=Cc2ccccn2)nn1 (centres unmarked) [PH 22-28, pyridine-2-aldehyde-6'-(N-methyl-N-2"-hydroxypropyl)-amino-3'-pyridazinylhydrazone] | 140 µM (≈ 40.1 µg/mL) | 35 µM (≈ 10 µg/mL) | 70 µM (≈ 20 µg/mL) |  |  |
| Clc1cccc(C=NNc2ccccn2)n1 [PH 22-11, 6-chloropyridine-2-aldehyde-2'-pyridylhydrazone] | 86 µM (≈ 20 µg/mL) | 43 µM (≈ 10 µg/mL) |  | 56 µM (≈ 13 µg/mL) | IC50 [7]: 13.1 µM; IC90 [7]: 25.7 µM; IC50 [8]: 8.9 µM; IC90 [8]: 23 µM |
| CC(=NNc1ncnc2ccccc12)c1ccccn1 [PH 22-34, 2-acetylpyridine-4'-quinazolylhydrazone] | 12 µM (≈ 3.16 µg/mL) | < 1 µM | 64 µM (≈ 16.9 µg/mL) |  |  |
| CCc1ccc(C=NNc2ccccn2)nc1 [PH 22-13, 5-ethyl-pyridine-2-aldehyde-2'-pyridylhydrazone] | 22 µM (≈ 4.98 µg/mL) | 53 µM (≈ 12 µg/mL) | 44 µM (≈ 9.96 µg/mL) | 22 µM (≈ 4.98 µg/mL) |  |
| C(=NNc1nncc2ccccc12)c1ccccn1 [PH 22-1, pyridine-2-aldehyde-1'-phthalazinylhydrazone] | 49 µM (≈ 12.2 µg/mL) | 12.1 µM (≈ 3.02 µg/mL) |  | 49 µM (≈ 12.2 µg/mL) |  |
| C(=NNc1nccc2ccccc12)c1ccccn1 [PH 22-27, pyridine-2-aldehyde-1'-isoquinolylhydrazone] | 8.1 µM (≈ 2.01 µg/mL) | 6 µM (≈ 1.49 µg/mL) | 16.1 µM (≈ 4 µg/mL) | 12.1 µM (≈ 3 µg/mL) |  |
| Cc1cccc(NN=Cc2ccccn2)n1 [PH 22-31, pyridine-2-aldehyde-2'-(6'-methyl)-pyridylhydrazone] | 1.8 µM (≈ 0.382 µg/mL) | 3.5 µM (≈ 0.743 µg/mL) | 8.3 µM (≈ 1.76 µg/mL) |  | MIC [3]: 57 µM |
| CC(=O)Nc1ccnc(C(C)=NNc2nncc3ccccc23)c1 [PH 22-20, 4-acetylamino-2-acetylpyridine-1'-phthalazinylhydrazine] | 10.9 µM (≈ 3.49 µg/mL) | 12.5 µM (≈ 4 µg/mL) | 88 µM (≈ 28.2 µg/mL) | 15.6 µM (≈ 5 µg/mL) |  |
| Clc1cccc(NN=Cc2ccccn2)n1 [PH 22-29, pyridine-2-aldehyde-6'-chloro-2'-pyridylhydrazone] | 1.6 µM (≈ 0.372 µg/mL) | 3.2 µM (≈ 0.745 µg/mL) | 6.5 µM (≈ 1.51 µg/mL) |  | MIC [3]: 60 µM |
| Cc1cccc(C=NNc2ccccn2)n1 [PH 22-10, 6-methyl pyridine-2-aldehyde-pyridylhydrazone] | 47 µM (≈ 9.98 µg/mL) | 8.3 µM (≈ 1.76 µg/mL) |  | 33 µM (≈ 7 µg/mL) |  |
